The source of these data is patent US11414415B2, “6H-imidazo[4,5,1-ij]quinolone, synthesis method and use thereof” (HANGZHOU NORMAL UNIVERSITY, priority 2020, dated 2022).

In this assay the test system is A549 (lung cancer cell). Kind of assay: MTT tumor cell proliferation assay on A549 lung cancer cells. In kind it is cell-based. Particulars: for IC50: Homo sapiens, 48 h, 44 h culture + 4 h MTT, read at 570 nm, sample concentration 0.5 mg/mL (water as solvent). On the procedure: Biological activity assay was conducted on compounds I-d to I-f prepared in the above examples:
Original osimertinib was used as control.
Specific procedure was as follows: plating A549 cells in a 96-well plate at a cell density of 2×10^4 cells/mL; after placing in an incubator overnight at 37° C. in 5% CO2, adding samples to be screened (sample concentrations are given in Table 1; medication groups were given 10 μL of the drug at the corresponding concentration per well, and blank control group was given 10 μL of PBS per well); after culturing for 44 h, adding 10 μL of MTT per well to culture for additional 4 h; dissolving in DMSO, shaking, and detecting on a microplate reader at 570 nm.
Inhibitory concentration 50 (IC50) values of 6H-imidazo[4,5,1-ij]quinolone derivatives with structures as shown in formulas I-d to I-f and control drug original osimertinib against A549 (lung cancer cell) were detected.

By IC50 is commonly meant the midpoint of a concentration-inhibition curve. As for `Cc1ccc(-c2nc3cccc4c(=O)ccn2c34)cc1` [I-a], the IC50 worked out at 11.2 µM.
On the same count and under the same terms, with `O=c1ccn2c(-c3ccc(F)cc3)nc3cccc1c32` [I-b] the figure was 15.3 µM; with `O=c1ccn2c(-c3ccccc3Cl)nc3cccc1c32` [I-c], 16.2 µM.
Regarding `O=c1ccn2c(-c3cccs3)nc3cccc1c32` [I-d], the IC50 was determined as 9.9 µM. The “IC50 value compared with osimertinib” value (statement in words) was “equivalent to anti-lung cancer drug osimertinib”.
Consider `O=c1ccn2c(C3CC3)nc3cccc1c32` [I-e], for which the IC50 stood at 21.1 µM.
On the same count and under the same terms, with `COc1cc2nc(-c3ccccc3)n3ccc(=O)c(c1)c23` [I-f] the figure was 12.3 µM; with `C=CC(=O)Nc1cc(Nc2nccc(-c3cn(C)c4ccccc34)n2)c(OC)cc1N(C)CCN(C)C` [Osimertinib, osimertinib, reference compound], 9.74 µM.
